The text below walks through data of patent US20260265703A1, “DEGRON FUSION PROTEINS AND METHODS OF PRODUCTION AND USE THEREOF” (BlueRock Therapeutics LP, priority 2023, published 2026).

Structures are written as SMILES.

Test [1] relates to iPSCs edited with a construct comprising a degron fused to GAPDH as well as GFP (GFP-positive). Briefly: Depletion of GFP-positive gene-edited iPSCs in a mixture with unedited cells after POM. The format is cell-based. The settings on record: 3 μM POM for 6d; heterogenous mixture; FIG. 7G construct. The procedure:
(§1) Functionality of the kill switch was tested in iPSCs using the targeting construct depicted in FIG. 7G, which comprises a linker, a degron sequence, an IRES, and a GFP transgene sequence flanked by GAPDH homology arms. On the day of Nucleofection, iPSCs were harvested and resuspended in Lonza P3 primary cell nucleofection buffer. Ribonucleoproteins (RNPs) were complexed with sgRNAs using 1:2 ratio of protein:sgRNA (IDT). Nucleofection of complexed RNP together with a targeting construct into resuspended iPSCs was accomplished using LONZA 4D Nucleofector. The Nucleofected cells were then plated and assessed for targeting events.
(§2) A heterogenous mixture of unedited cells (GFP-negative) and cells edited with a construct depicted in FIG. 7G, comprising a degron fused to GAPDH as well as GFP (GFP-positive) were treated with 3 μM pomalidomide (POM) for 6d or fed with complete medium without POM (untreated).

The test system of test [2] is unedited cells (GFP-negative) iPSCs. Nature of the test: Effect of POM on unedited cells in the mixture with gene-edited iPSCs. The format is cell-based. The settings on record: 3 μM POM for 6d; heterogenous mixture. The procedure:
as §1, §2

Test [3] concerns iPSC clone bi-allelically modified with a degron fused to GAPDH and IRES-GFP. Briefly: Incucyte live cells/well of a bi-allelically modified iPSC clone under POM. The format is cell-based. The conditions noted are these: 1 μM POM. The text has this:
The percentage of live cells/well was quantified at several timepoints using the Incucyte software and normalized for the number of live cells/well at the first image timepoint.

The subject of test [4] is pool of iPSCs transfected with degron or superdegron GAPDH IRES-GFP targeting constructs. Nature of the test: Linker length: flow cytometry of GFP signal depletion in transfected iPSC pools. The format is cell-based. The settings on record: 3 μM POM for 4 days. An excerpt: (§3) Two sets of targeting constructs were generated as described in Section 8.1. The first set of targeting constructs were designed to comprise a linker, a degron or superdegron sequence, an IRES sequence, and a GFP transgene sequence flanked by GAPDH homology arms as depicted in FIGS. 7G-7J, wherein the linker lengths were 3 aa (linker 1, GGS), 15 aa (linker 2, SEQ ID NO:23), 27 aa (linker 3, SEQ ID NO:103) and 10 aa (linker 4, SEQ ID NO:15). The second set of targeting constructs were designed to comprise a linker and a degron or superdegron sequence flanked by GAPDH homology arms as depicted in FIGS. 7A-7D. For both sets, the homology arms were designed to enable integration of the construct in the endogenous GAPDH locus, immediately 5′ of the GAPDH endogenous STOP codon. iPSCs were transfected with each construct individually.
A pool of iPSCs transfected with the first set of targeting constructs, potentially comprising both mono-allelically and bi-allelically gene edited iPSCs, were evaluated using flow cytometry, wherein the depletion of GFP signal was assessed following treatment with 3 μM POM for 4 days. Among gene-edited iPSCs, those that were transfected with the superdegron-comprising targeting construct had the lowest percentage of GFP-positive cells, whereas approximately ⅓ to ½ of […] cells transfected with one of the degron-comprising targeting constructs were GFP-positive.

The test system of test [5] is iPSCs transfected with degron or superdegron GAPDH targeting constructs. Briefly: Linker length: amplicon depletion after POM relative to untreated cells. The format is cell-based. The conditions noted are these: 3 μM POM; construct with 3 aa linker and degron.
From the text: as §3
Next, the iPSCs transfected with the second set of targeting constructs were evaluated, wherein amplicon depletion was assessed following POM treatment relative to untreated cells. […] Taken together, targeting construct linker length and degron type might be key factors to trigger cell death in gene-edited cells.

A further test relates to GAPDH expression. Briefly: qPCR of GAPDH expression in gene-edited iPSC clones. The conditions noted are these: 3 μM POM for up to 3 days; three degron clones and one superdegron clone. The format is cell-based. For orientation: Real-time PCR tracks product formation cycle by cycle.
In test [6] the target is degron-fused GAPDH protein (Homo sapiens, UniProt P04406+Q96SW2). The settings on record: one day treatment with 3 μM POM; degron and superdegron iPSC clones. As for the experimental part: To determine whether gene-editing of iPSCs with a targeting construct, wherein the homology arms of which enable its integration in the endogenous GAPDH locus, affects the expression of GAPDH, three clones bi-allelically modified with a targeting construct comprising a 3 aa linker, GGS and a degron (as depicted in FIG. 7G) and one clone bi-allelically modified with superdegron-comprising targeting construct (as depicted in FIG. 7J) were treated with 3 μM POM for up to 3 days.
degron-fused GAPDH protein, sequence (P04406 other isoform, or with tags, fused parts or gaps): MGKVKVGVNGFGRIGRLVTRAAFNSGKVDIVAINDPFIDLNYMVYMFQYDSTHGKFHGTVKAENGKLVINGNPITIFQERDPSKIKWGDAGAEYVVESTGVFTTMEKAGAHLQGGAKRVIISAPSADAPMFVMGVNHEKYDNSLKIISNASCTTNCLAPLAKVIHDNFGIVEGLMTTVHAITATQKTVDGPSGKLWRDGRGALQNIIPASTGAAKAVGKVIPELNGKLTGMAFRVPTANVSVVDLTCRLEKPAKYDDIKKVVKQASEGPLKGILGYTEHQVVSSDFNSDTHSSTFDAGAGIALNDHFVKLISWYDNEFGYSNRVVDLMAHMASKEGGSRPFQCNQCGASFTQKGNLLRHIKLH
degron-fused GAPDH protein, sequence (Q96SW2 whole entry, the tested form may be a part): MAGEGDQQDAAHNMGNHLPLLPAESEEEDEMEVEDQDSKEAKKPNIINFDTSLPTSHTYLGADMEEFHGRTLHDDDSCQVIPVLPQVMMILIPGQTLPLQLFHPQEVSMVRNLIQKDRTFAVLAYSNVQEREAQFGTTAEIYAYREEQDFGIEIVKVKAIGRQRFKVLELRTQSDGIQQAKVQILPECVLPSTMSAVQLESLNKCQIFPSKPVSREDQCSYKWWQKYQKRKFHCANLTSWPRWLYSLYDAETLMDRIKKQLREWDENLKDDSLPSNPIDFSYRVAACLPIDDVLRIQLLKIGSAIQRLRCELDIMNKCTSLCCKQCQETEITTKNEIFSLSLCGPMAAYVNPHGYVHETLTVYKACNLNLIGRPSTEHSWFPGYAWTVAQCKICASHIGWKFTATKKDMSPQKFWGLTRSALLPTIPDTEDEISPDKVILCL
degron-fused GAPDH protein, sequence (Q16531 whole entry, further chain, the tested form may be a part): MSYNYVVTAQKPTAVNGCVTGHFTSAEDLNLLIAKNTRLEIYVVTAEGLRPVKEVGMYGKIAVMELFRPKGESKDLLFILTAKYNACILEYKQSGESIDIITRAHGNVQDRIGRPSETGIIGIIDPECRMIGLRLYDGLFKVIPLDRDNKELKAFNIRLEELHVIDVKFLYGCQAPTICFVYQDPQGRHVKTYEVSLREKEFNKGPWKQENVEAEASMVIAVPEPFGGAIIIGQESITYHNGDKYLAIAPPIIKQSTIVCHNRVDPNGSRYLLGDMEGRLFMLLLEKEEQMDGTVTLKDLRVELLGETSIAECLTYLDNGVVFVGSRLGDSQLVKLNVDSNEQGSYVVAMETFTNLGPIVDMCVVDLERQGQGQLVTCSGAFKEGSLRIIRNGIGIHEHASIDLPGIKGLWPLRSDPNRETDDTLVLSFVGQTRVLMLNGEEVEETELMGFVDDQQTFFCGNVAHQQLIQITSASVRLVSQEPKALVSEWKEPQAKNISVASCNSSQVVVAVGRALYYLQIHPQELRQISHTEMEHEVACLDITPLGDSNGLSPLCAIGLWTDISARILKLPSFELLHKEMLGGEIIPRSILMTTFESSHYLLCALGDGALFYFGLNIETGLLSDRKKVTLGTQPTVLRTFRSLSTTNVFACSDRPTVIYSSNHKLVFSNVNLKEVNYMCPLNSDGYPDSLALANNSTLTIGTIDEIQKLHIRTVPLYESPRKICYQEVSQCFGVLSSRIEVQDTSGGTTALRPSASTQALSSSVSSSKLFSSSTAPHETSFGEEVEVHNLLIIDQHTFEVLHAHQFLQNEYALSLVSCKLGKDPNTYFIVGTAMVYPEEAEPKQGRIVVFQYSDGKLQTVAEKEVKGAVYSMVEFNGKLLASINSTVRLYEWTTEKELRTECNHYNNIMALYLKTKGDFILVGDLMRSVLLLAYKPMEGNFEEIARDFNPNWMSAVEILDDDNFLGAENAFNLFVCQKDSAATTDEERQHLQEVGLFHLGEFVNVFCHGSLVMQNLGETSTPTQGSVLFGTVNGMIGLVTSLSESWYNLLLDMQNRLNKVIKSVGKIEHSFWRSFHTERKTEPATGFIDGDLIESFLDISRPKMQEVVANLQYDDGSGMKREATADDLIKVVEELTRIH

For test [7], the system named is gene-edited iPSC clones (degron or superdegron linked to GAPDH). The format is cell-based.
In test [8] the test system is unedited parental cells (iPSCs). Nature of the test: Growth of unedited parental iPSCs under POM. The settings on record: 0.5 μM POM for 5 days. The format is cell-based. The procedure: The same gene-edited iPSC clones in Example 4 were treated with 0.5 μM POM for 5 days to determine if there were any differences between the survival rates.
The test system of test [9] is dopaminergic (DA) neurons differentiated from gene-edited iPSC clones (degron linked to GAPDH). Briefly: Annexin V Incucyte cell death of DA neurons differentiated from gene-edited iPSCs. The format is cell-based. The procedure:
(§4) In order to determine the applicability of the degron-comprising targeting constructs to differentiated cells, unedited parental iPSCs and gene-edited iPSC clones B and C were differentiated into dopaminergic (DA) neurons as depicted in FIG. 13. The differentiation protocol was adapted from Kriks et al., 2011, Nature 480 (7378): 547-551 and U.S. Pat. No. 10,711,243, which are hereby incorporated by reference in their entireties. Cell death was assessed post-thaw after cells were plated down in the presence and absence of various concentrations of POM. Annexin V dye was used to quantify cell death in an Incucyte imager over a period of 5 days.
(§5) Cells were differentiated from iPSCs into DA neurons using the same protocol as depicted in FIG. 13. DA neurons were plated and stained with Annexin V dye and cell death was measured using an Incucyte Imager over a period of 144 hours.

For test [10], the system named is DA neurons derived from unedited parental iPSCs. Briefly: Annexin V Incucyte cell death of DA neurons derived from unedited parental iPSCs. The format is cell-based. The procedure:
as §4, §5

In test [11] the test system is myeloid progenitor (MP) cells differentiated from biallelically gene-edited iPSC clones A, B, and C. Nature of the test: AO/PI Incucyte cell death of myeloid progenitor cells differentiated from gene-edited iPSCs. The format is cell-based. The conditions noted are these: 1 μM POM, 108 hours. The text has this: (§6) To expand the applicability of the degron-comprising constructs to additional differentiated cell types, unedited parental iPSCs and biallelically gene-edited iPSC clones A, B, and C comprising targeting construct as depicted in FIG. 7G were differentiated into myeloid progenitor (MP) cells as depicted in FIG. 17. The differentiation protocol was adapted from Douvaras et al., 2017 Jun. 6; 8 (6): 1516-1524 and PCT publication nos. WO 2023/150089 A1 and WO 2017/152081 A1, which are hereby incorporated by reference in their entireties. Cell death was assessed post-thaw after MP cells were plated down in the presence and absence of POM. Acridine Orange/Propidium Iodine (AO/PI) dye was used to quantify cell death in an Incucyte Imager over a period of 108 hours.

Test [12] has as its system myeloid progenitor (MP) cells differentiated from unedited parental iPSCs. Nature of the test: AO/PI Incucyte cell death of myeloid progenitor cells from unedited parental iPSCs. The settings on record: 1 μM POM; 108 hours. The format is cell-based.
From the text: as §6

Turning to `Nc1cccc2c1C(=O)N(C1CCC(=O)NC1=O)C2=O` (stereo not shown) [POM, pomalidomide], the “effect on the population of edited GFP-positive cells” value in test [1] is reported as “depleted the population of edited GFP-positive cells”. The “effect on unedited cells” value in [2] is given as “did not affect unedited cells”. Besides, the “elimination of gene edited cells” value in [3] (92 hours after addition) is listed as “completely eliminated”. For the same molecule, in test [3] (bi-allelic FIG. 7G clone, Incucyte), the “time after addition of POM at which cell death rate surpassed proliferation rate” value is recorded as “around 24 hours”. Also, the “depletion of GFP-positive cells” value in test [4] (degron construct with the shortest linker (3 aa, GGS)) is on record as “depleted GFP-positive cells”; in test [4] (degron constructs with 15 aa and 27 aa linkers (no depletion implied)), “only if they were transfected with the degron-comprising targeting construct with the shortest linker or the superdegron-comprising targeting construct”; in test [4] (superdegron construct (10 aa linker)) it was “depleted GFP-positive cells”. In addition, the “amplicon depletion relative to untreated cells” value in test [5] was “associated with amplicon depletion”. Also, the “GAPDH expression by qPCR, untreated vs POM-treated gene-edited cells” value in the test on GAPDH expression is listed as “No large differences in GAPDH expression”. Besides, in test [6], the “GAPDH protein by western blot” value is recorded as “completely depleted”. In addition, in [7] (0.5 μM POM for 5 days, degron and superdegron clones of Example 4), the “killing of gene-edited iPSCs” value is recorded as “complete killing of all gene-edited iPSCs”. In addition, the “POM concentration sufficient to achieve complete killing” value in test [7] (degron construct, monitored 5 days, range 0.03125 μM to 10 μM) worked out at 0.5 µM. For the same molecule, the “POM concentration able to trigger apoptosis” value in test [7] (degron construct, monitored 5 days, range 0.03125 μM to 10 μM, data not shown) turned out to be 0.25 µM. Besides, in [7] (superdegron construct, monitored 5 days), the “lowest POM concentration evaluated, associated with apoptosis of all cells” value was found to be 0.03125 µM. In test [8], the “growth of unedited parental cells” value is on record as “did not affect the growth of unedited parental cells”. The “POM concentration giving nearly complete cell death” value in test [9] (Clone A or Clone C, by 144 hours, range 0.01 μM to 100 μM) came to 0.1 µM. The “POM concentration giving complete killing (lowest concentration evaluated)” value in test [9] (DA neurons derived from clone B, 5-day treatment) is 10 nM. In addition, the “death of neurons at all POM concentrations evaluated” value in [9] (clone B and clone C, by day 5, 0.13 μM-1 μM POM) is “complete death of all neurons”. In addition, the “cell death at any POM concentration tested” value in test [10] (0.01 μM to 100 μM POM, 144 hours) is on record as “No differences in cell death”. In addition, the “neuronal death with vs without POM” value in test [10] (various POM concentrations, 5 days) is “No differences in neuronal death”. For the same molecule, in test [11], the “cell death of gene-edited MP clones” value was “died in response to POM”. In addition, the “cell death of unedited parental MP line” value in test [12] is on record as “no increase in cell death”.
